From US20240342265A1, “E PROTEIN-MUTATED WEST NILE VIRUS USED AS LIVE[…] AND ONCOLYTIC DRUG FOR CANCER THERAPY” (priority 2023, published 2024)

Legend:
[1] = test system: SH-SY5Y cells (human neuroblastoma); test: Human neuroblastoma xenograft model in BALB/c nude mice; type: in vivo; details: Adriamycin group
Experimental: The attenuated WNV was tested for oncolytic virus activity. Under aseptic conditions, SH-SY5Y cells (4×106/0.1 ml/per mouse) were inoculated into the right flank region of SPF-grade BALB/c nude mice aged 8 to 10 weeks to establish a human neuroblastoma xenograft model. When the diameter of the subcutaneous tumor nodules reached 5˜6 mm (corresponding to a tumor volume of approximately 50 mm3˜100 mm3), the mice were randomly divided into groups ensuring that the difference in tumor volume between groups was <10%. Grouping and management information are as described in Table 4. The day of the first administration was recorded as D1.
The half-effective dose is 421 PFU.

[2] = test system: Neuro-2a cells (mouse-derived neuroblastoma); test: Bilateral mouse neuroblastoma model in A/JGpt mice, right-side intratumoral injection; type: in vivo
Experimental: Mouse-derived neuroblastoma cells (Neuro-2a cells, 1×10^8/0.1 ml/mouse) were inoculated into the bilateral lumbar region of A/JGpt female mice (SPF grade 5-week-old). When the diameter of subcutaneous tumor nodules reached 5-6 mm (about 50-100 mm^3), mice were randomly divided into groups per the <10% of tumor volume. The DS1-M2-1 was injected intratumorally only into the right-side tumor on day one.
During the test period, the body weight of each mouse was normal. […] Since the left-side tumor is the non-administered side, it is considered that the effect of DS1-M2-1 on the left-side tumor is a result of the immunotherapy effect.

[3] = Doxorubicin-Hydro group, left tumor
[4] = Doxorubicin-Hydro group, right tumor

| SMILES | % T/C [1] | % TGITV [1] | % TGITW [1] | Tumor Volume (mm^3) Day 31 [1] | Tumor Weight [1] | Max % TGITV, L [2, 3] | No. of mice with tumor completely eliminated, D 22, L [2, 3] | No. of mice with tumor completely eliminated, No./Total, L [2, 3] | Max % TGITV, R [2, 4] | No. of mice with tumor completely eliminated, D 18, R [2, 4] | No. of mice with tumor completely eliminated, D 22, R [2, 4] | No. of mice with tumor completely eliminated, No./Total, R [2, 4] | Max % TGITV, L ([2]; Taxol 20 mg/kg, left tumor) | No. of mice with tumor completely eliminated, No./Total, L ([2]; Taxol 20 mg/kg, left tumor) | Max % TGITV, R ([2]; Taxol 20 mg/kg, right tumor) | No. of mice with tumor completely eliminated, No./Total, R ([2]; Taxol 20 mg/kg, right tumor) |
| --- | --- | --- | --- | --- | --- | --- | --- | --- | --- | --- | --- | --- | --- | --- | --- | --- |
| COc1cccc2c1C(=O)c1c(O)c3c(c(O)c1C2=O)C[C@@](O)(C(=O)CO)C[C@@H]3O[C@H]1C[C@H](N)[C@H](O)[C@H](C)O1 [Adriamycin, doxorubicin] | 37.43% | 63.27% | 53.12% | 468.07 ± 145.59 mm^3 | 0.406 ± 0.157 g | 84.23% | 3 | 3/10 | 83.25% | 1 | 2 | 3/10 | – | – | – | – |
| CC(=O)O[C@H]1C(=O)[C@@]2(C)[C@H]([C@H](OC(=O)c3ccccc3)[C@]3(O)C[C@H](OC(=O)[C@H](O)[C@@H](NC(=O)c4ccccc4)c4ccccc4)C(C)=C1C3(C)C)[C@]1(OC(C)=O)CO[C@@H]1C[C@@H]2O [Taxol, paclitaxel] | – | – | – | – | – | – | – | – | – | – | – | – | 50.74% | 0/4 | 46.73% | 0/4 |
